This passage reports BTX inhibition results from US20090176811A1, “Substituted 5,6,7,8-Tetrahydro-pyrido[4,3-d]pyrimidine-2-yl Compounds and 5,6,7,8-Tetrahydro-quinazoline-2-yl Compounds” (GRUENENTHAL GmbH, priority 2004, published 2009).

SMILES strings stand for the structures.

For the assay, the system named is batrachotoxin (BTX) binding site of the sodium channel. The experiment in a line: Affinity for the batrachotoxin (BTX) binding site of the sodium channel ([3H]-Batrachotoxinin A20 benzoate, rat cerebrocortex synaptosomes). The note with it: [3H]-Batrachotoxinin A20 benzoate 10 nM, test concentration not given.
For `Cc1ccc(S(=O)(=O)N2CCc3nc(NC(=O)c4cccc(F)c4)ncc3C2)cc1` [Example 143, 3-fluoro-N-[6-(toluene-4-sulfonyl)-5,6,7,8-tetrahydro-pyrido[4,3-d]pyrimidin-2-yl]-benzamide], the BTX inhibition is on record as 61.
Molecule `O=C(Nc1ncc2c(n1)CCN(C(=O)c1ccc(-c3cccs3)cc1)C2)c1cc(Cl)cc(Cl)c1` [Example 144, 3,5-dichloro-N-[6-(4-thiophen-2-yl-benzoyl)-5,6,7,8-tetrahydro-pyrido[4,3-d]pyrimidin-2-yl]-benzamide] returned a BTX inhibition of 81.
To `CCOc1ccccc1C(=O)Nc1ncc2c(n1)CCN(C(=O)c1sccc1Cl)C2` [Example 145, N-[6-(3-chloro-thiophene-2-carbonyl)-5,6,7,8-tetrahydro-pyrido[4,3-d]pyrimidin-2-yl]-2-ethoxy-benzamide] belongs 46; to `O=C(Nc1ncc2c(n1)CCC(NS(=O)(=O)c1ccc3c(c1)CN(C(=O)C(F)(F)F)CC3)C2)c1cccs1` (centres unmarked) [Example 147, thiophene-2-carboxylic acid {6-[2-(2,2,2-trifluoro-acetyl)-1,2,3,4-tetrahydro-isoquinoline-7-sulfonylamino]-5,6,7,8-tetrahydro-quinazolin-2-yl}-amide], 48; to `Cc1ccc(C(=O)Nc2ncc3c(n2)CCN(C(=O)c2ccc(SC(F)(F)F)cc2)C3)cc1` [Example 148, 4-methyl-N-[6-(4-trifluoromethylsulfanyl-benzoyl)-5,6,7,8-tetrahydro-pyrido[4,3-d]pyrimidin-2-yl]-benzamide], 85.
The molecule `Cc1ccc([N+](=O)[O-])cc1S(=O)(=O)N1CCc2nc(NC(=O)c3ccccc3F)ncc2C1` [Example 150, 2-fluoro-N-[6-(2-methyl-5-nitro-benzenesulfonyl)-5,6,7,8-tetrahydro-pyrido[4,3-d]pyrimidin-2-yl]-benzamide] had a BTX inhibition of 49.
The molecule `O=C(Nc1ncc2c(n1)CCN(C(=O)c1ccc(F)cc1F)C2)c1ccc(Cl)cc1` [Example 152, 4-chloro-N-[6-(2,4-difluoro-benzoyl)-5,6,7,8-tetrahydro-pyrido[4,3-d]pyrimidin-2-yl]-benzamide] had a BTX inhibition of 55.
Regarding `O=C(Nc1ncc2c(n1)CCN(C(=O)Cc1ccc(C(F)(F)F)cc1)C2)c1ccccc1` [Example 155, N-{6-[2-(4-trifluoromethyl-phenyl)-acetyl]-5,6,7,8-tetrahydro-pyrido[4,3-d]pyrimidin-2-yl}-benzamide], the BTX inhibition was determined as 62.
In turn, `CCc1ccc(C(=O)Nc2ncc3c(n2)CCN(S(=O)(=O)c2ccc4c(c2)CN(C(=O)C(F)(F)F)CC4)C3)cc1` [Example 157, 4-ethyl-N-{6-[2-(2,2,2-trifluoro-acetyl)-1,2,3,4-tetrahydro-isoquinoline-7-sulfonyl]-5,6,7,8-tetrahydro-pyrido[4,3-d]pyrimidin-2-yl}-benzamide] showed a BTX inhibition of 63.
The same measure for `COc1ccccc1C(=O)Nc1ncc2c(n1)CCN(S(=O)(=O)c1c(C)cc(OC)c(C)c1C)C2` [Example 158, 2-methoxy-N-[6-(4-methoxy-2,3,6-trimethyl-benzenesulfonyl)-5,6,7,8-tetrahydro-pyrido[4,3-d]pyrimidin-2-yl]-benzamide]: 74.
The same measure for `Cc1ccc(C)c(CC(=O)NC2CCc3nc(NC(=O)c4ccc(F)cc4)ncc3C2)c1` (centres unmarked) [Example 163, N-{6-[2-(2,5-dimethyl-phenyl)-acetylamino]-5,6,7,8-tetrahydro-quinazolin-2-yl}-4-fluoro-benzamide]: 28.
To `CCCC(=O)Nc1ncc2c(n1)CCC(NS(=O)(=O)c1ccc(C(C)(C)CC)cc1)C2` (centres unmarked) [Example 167, N-{6-[4-(1,1-dimethyl-propyl)-benzenesulfonylamino]-5,6,7,8-tetrahydro-quinazolin-2-yl}-butyramide] belongs 51.
For `CCCC(=O)Nc1ncc2c(n1)CCC(NC(=O)C=Cc1cccc(C(F)(F)F)c1)C2` (centres unmarked) [Example 168, N-(2-butyrylamino-5,6,7,8-tetrahydro-quinazolin-6-yl)-3-(3-trifluoromethyl-phenyl)-acrylamide], the BTX inhibition worked out at 39.
The molecule `CCc1ccc(C(=O)Nc2ncc3c(n2)CCN(S(=O)(=O)c2ccc(OC)cc2)C3)cc1` [Example 172, 4-ethyl-N-[6-(4-methoxy-benzenesulfonyl)-5,6,7,8-tetrahydro-pyrido[4,3-d]pyrimidin-2-yl]-benzamide] displayed a BTX inhibition of 57.
`O=C(Nc1ncc2c(n1)CCN(C(=O)C1=Cc3ccccc3OC1)C2)c1ccc(F)c(F)c1` [Example 175, N-[6-(2H-chromene-3-carbonyl)-5,6,7,8-tetrahydro-pyrido[4,3-d]pyrimidin-2-yl]-3,4-difluoro-benzamide] registered a BTX inhibition of 49.
To `O=C(Nc1ncc2c(n1)CCC(NS(=O)(=O)c1cc(Cl)sc1Cl)C2)c1cccs1` (centres unmarked) [Example 180, thiophene-2-carboxylic acid [6-(2,5-dichloro-thiophene-3-sulfonylamino)-5,6,7,8-tetrahydro-quinazolin-2-yl]-amide] belongs 46; to `O=C(Nc1ncc2c(n1)CCN(C(=O)c1cccc(F)c1)C2)c1cccc2ccccc12` [Example 183, naphthalene-1-carboxylic acid [6-(3-fluoro-benzoyl)-5,6,7,8-tetrahydro-pyrido[4,3-d]pyrimidin-2-yl]-amide], 31.
The same measure for `CC(C)(C)c1ccc(C(=O)Nc2ncc3c(n2)CCN(C(=O)c2csc4ccccc24)C3)cc1` [Example 184, N-[6-(benzo[b]thiophene-3-carbonyl)-5,6,7,8-tetrahydro-pyrido[4,3-d]pyrimidin-2-yl]-4-tert-butyl-benzamide]: 87; for `CC(C)(C)c1ccc(C(=O)Nc2ncc3c(n2)CCN(S(=O)(=O)c2ccc4c(c2)OCCO4)C3)cc1` [Example 186, 4-tert-butyl-N-[6-(2,3-dihydro-benzo[1,4]dioxin-6-sulfonyl)-5,6,7,8-tetrahydro-pyrido[4,3-d]pyrimidin-2-yl]-benzamide]: 77.
Molecule `O=C(Nc1ncc2c(n1)CCN(C(=O)Cc1c(Cl)cccc1Cl)C2)c1cccc(Cl)c1` [Example 187, 3-chloro-N-{6-[2-(2,6-dichloro-phenyl)-acetyl]-5,6,7,8-tetrahydro-pyrido[4,3-d]pyrimidin-2-yl}-benzamide] yielded a BTX inhibition of 43.
On to `Cc1ccc(C(=O)Nc2ncc3c(n2)CCN(C(=O)COc2cccc(Cl)c2)C3)cc1` [Example 189, N-{6-[2-(3-chloro-phenoxy)-acetyl]-5,6,7,8-tetrahydro-pyrido[4,3-d]pyrimidin-2-yl}-4-methyl-benzamide], for which the BTX inhibition worked out at 55.
The molecule `O=C(Nc1ncc2c(n1)CCN(C(=O)CCCCc1ccccc1)C2)c1ccccc1` [Example 190, N-[6-(5-phenyl-pentanoyl)-5,6,7,8-tetrahydro-pyrido[4,3-d]pyrimidin-2-yl]-benzamide] displayed a BTX inhibition of 56.
To `O=C(Nc1ncc2c(n1)CCN(C(=O)c1ccc(OC(F)(F)F)cc1)C2)c1cc(Cl)cc(Cl)c1` [Example 192, 3,5-dichloro-N-[6-(4-trifluoromethoxy-benzoyl)-5,6,7,8-tetrahydro-pyrido[4,3-d]pyrimidin-2-yl]-benzamide] belongs 87; to `CCCCC(C)CCC(=O)N1CCc2nc(NC(=O)c3cccc4ccccc34)ncc2C1` (centres unmarked) [Example 193, naphthalene-1-carboxylic acid [6-(4-methyl-octanoyl)-5,6,7,8-tetrahydro-pyrido[4,3-d]pyrimidin-2-yl]-amide], 84.
In turn, `COc1ccccc1C(=O)Nc1ncc2c(n1)CCN(C(=O)COCc1ccccc1)C2` [Example 195, N-[6-(2-benzyloxy-acetyl)-5,6,7,8-tetrahydro-pyrido[4,3-d]pyrimidin-2-yl]-2-methoxy-benzamide] registered a BTX inhibition of 35.
The same measure for `COc1cccc(C(=O)Nc2ncc3c(n2)CCN(C(=O)c2cccc(OC(F)(F)F)c2)C3)c1` [Example 199, 3-methoxy-N-[6-(3-trifluoromethoxy-benzoyl)-5,6,7,8-tetrahydro-pyrido[4,3-d]pyrimidin-2-yl]-benzamide]: 48.
